Source: article PMC7557599, “Cyclic Peptide-Gadolinium Nanoparticles for Enhanced Intracellular Delivery” (Pharmaceutics, 2020)

These compounds were tested on CCRF-CEM cells (assay: Time-dependent antiproliferative activity assay (MTS)). Conditions: drug 5 µM, [(WR)5C]-GdNPs 50 µM, 72 h incubation, MTS 490 nm, triplicate (n = 3).
Assay type: cell-based, human
Experimental: Antiproliferative activities of several anticancer drugs, including epirubicin, cisplatin, gemcitabine, etoposide, carboplatin and camptothecin, were evaluated in the presence and absence of [(WR)5C]-GdNPs in CCRF-CEM cells. Different time periods, including 24, 48 and 72 h, were selected. The CellTiter 96 aqueous one solution cell proliferation assay kit (Promega, Madison, WI, USA) was used for the assay. The CCRF-CEM cells (5 × 10^4) were seeded in 100 µL of the media. The cells then placed in each well of the 96-well culture plate. The cells were incubated with drugs alone and [(WR)5C]-GdNPs-loaded drugs at a similar condition in triplicates. To confirm the results, DMSO (1% in water) was used as a control. To entrap the drug, the physical mixing method was used. A calculated volume of the drug solution was mixed with the desired volume of an aqueous solution of [(WR)5C]-GdNPs physically to obtain a final concentration of the drug (5 μM) and the [(WR)5C]-GdNPs (50 μM). The mixture was vortexed until the solution became homogeneous and clear. The mixture was incubated for 30 min at room temperature before adding to the cells to obtain optimized performance. The incubation of cells with their treatments was carried out at 37 °C for 24–72 h. The cell viability assay was performed by adding 20 μL of CellTiter 96 aqueous solution. The cells were incubated for another hour with the MTS reagent. The formazan absorbance was measured at 490 nm by a microplate reader. The percentage of cell survival was calculated as previously reported.
Several anticancer drugs such as epirubicin, cisplatin, gemcitabine, etoposide, carboplatin and camptothecin were evaluated for their antiproliferative activities at different time periods, including 24, 48 and 72 h. […] The improved antiproliferative activity of cisplatin and carboplatin could be due to the chelating of the thiol group of cysteine with these anticancer agents or binding of metals to peptides as GdNPs. […]
In the case of `CC[C@@]1(O)C(=O)OCc2c1cc1n(c2=O)Cc2cc3ccccc3nc2-1` [camptothecin], the “enhancement of antiproliferative potency in the presence of [(WR)5C]-GdNPs” value (from here on “enhancement of antiproliferative potency”) was 8%. `COc1cccc2c1C(=O)c1c(O)c3c(c(O)c1C2=O)C[C@@](O)(C(=O)CO)C[C@@H]3O[C@H]1C[C@H](N)[C@@H](O)[C@H](C)O1` [epirubicin] was tested, and the “enhancement of antiproliferative potency” value was 6%. With `COc1cc([C@@H]2c3cc4c(cc3[C@@H](O[C@@H]3O[C@@H]5CO[C@@H](C)O[C@H]5[C@H](O)[C@H]3O)[C@H]3COC(=O)[C@H]23)OCO4)cc(OC)c1O` [etoposide] the “enhancement of antiproliferative potency” value was 2%.
